# According to patent US12006321B2, “Substituted pyrazolo[1,5-a]pyrimidines as apelin receptor agonists” (Sanford Burnham Prebys Medical Discovery Institute, priority 2017, dated 2024):
# Molecular target: T1, human apelin receptor (APJ, APLNR) (Homo sapiens, UniProt P35414)
# T1 construct: host or cells: Chinese hamster ovary (CHO) cells, stably integrated receptor
# T1 sequence (P35414 1-380): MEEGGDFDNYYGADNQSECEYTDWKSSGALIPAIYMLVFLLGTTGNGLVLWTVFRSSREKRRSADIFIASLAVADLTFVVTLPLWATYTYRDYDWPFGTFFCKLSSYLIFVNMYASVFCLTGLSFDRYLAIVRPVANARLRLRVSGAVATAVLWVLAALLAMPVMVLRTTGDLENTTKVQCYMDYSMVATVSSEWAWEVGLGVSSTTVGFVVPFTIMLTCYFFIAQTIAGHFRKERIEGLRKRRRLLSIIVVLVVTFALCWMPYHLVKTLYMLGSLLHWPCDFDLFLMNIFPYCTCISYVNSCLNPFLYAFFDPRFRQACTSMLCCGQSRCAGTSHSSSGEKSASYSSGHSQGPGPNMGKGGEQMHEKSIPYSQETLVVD
# Assay: cell-based cAMP assay (TR-FRET) in Chinese hamster ovary cells expressing the apelin receptor
# Conditions: EC50 = 50% of control (apelin-13, 1 nM) response; cAMP in CHO cells, 0.5 h incubation; read-out: Potency Category
# How it was run: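 CHO cells stably expressing human APJ were forskolin-stimulated, then exposed to compound (0.0-100 μM, ≤1% DMSO) for 0.5 h. Lysate cAMP read by competitive TR-FRET immunoassay; EC50 and efficacy expressed relative to 1 nM apelin-13, four-parameter fit over ≥10 concentrations.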
row,EC50,SMILES
1,> 500 nM,"CCOC(=O)c1cc(C(C)C)n2nc(C)c(-c3c(F)cccc3OC)c2n1 [Compound 91, ethyl 3-(6-fluoro-2-methoxyphenyl)-2-methyl-7-(methylethyl)-8-hydropyrazolo[1,5-a]pyrimidine-5-carboxylate]"
2,> 500 nM,"COc1cccc(F)c1-c1c(C)nn2c(C(C)C)cc(C(=O)O)nc12 [Compound 92, 3-(6-fluoro-2-methoxyphenyl)-2-methyl-7-(methylethyl)-8-hydropyrazolo[1,5-a]pyrimidine-5-carboxylic acid]"
3,200 to 500 nM,"Cc1cccc(Cl)c1-c1c(C)nn2c(C(C)C)cc(C(=O)O)nc12 [Compound 93, 3-(6-chloro-2-methylphenyl)-2-methyl-7-(methylethyl)-8-hydropyrazolo[1,5-a]pyrimidine-5-carboxylic acid]"
4,> 500 nM,"CCOC(=O)c1cc(C(C)C)n2nc(C)c(-c3c(C)cccc3Cl)c2n1 [Compound 94, ethyl 3-(6-chloro-2-methylphenyl)-2-methyl-7-(methylethyl)-8-hydropyrazolo[1,5-a]pyrimidine-5-carboxylate]"
5,> 500 nM,"COC(=O)c1cc(C(C)C)n2nc(C(=O)OC)c(-c3c(C)cccc3C)c2n1 [Compound 95, methyl 3-(2,6-dimethylphenyl)-2-(methoxycarbonyl)-7-(methylethyl)-8-hydropyrazolo[1,5-a]pyrimidine-5-carboxylate]"
6,> 500 nM,"Cc1cccc(C)c1-c1c(C(=O)O)nn2c(C(C)C)cc(C(=O)O)nc12 [Compound 96, 3-(2,6-dimethylphenyl)-7-(methylethyl)-8-hydropyrazolo[1,5-a]pyrimidine-2,5-dicarboxylic acid]"
7,> 500 nM,"CCOC(=O)c1cc(N2CCOCC2)n2nc(C)c(-c3c(C)cccc3C)c2n1 [Compound 97, ethyl 3-(2,6-dimethylphenyl)-2-methyl-7-morpholin-4-yl-8-hydropyrazolo[1,5-a]pyrimidine-5-carboxylate]"
8,> 500 nM,"Cc1cccc(C)c1-c1c(C)nn2c(N3CCOCC3)cc(C(=O)O)nc12 [Compound 98, 3-(2,6-dimethylphenyl)-2-methyl-7-morpholin-4-yl-8-hydropyrazolo[1,5-a]pyrimidine-5-carboxylic acid]"
9,> 500 nM,"COc1cc(C(=O)O)nc2c(-c3c(C)cccc3C)c(C)nn12 [Compound 99, 3-(2,6-dimethylphenyl)-7-methoxy-2-methyl-8-hydropyrazolo[1,5-a]pyrimidine-5-carboxylic acid]"
10,> 500 nM,"CCOC(=O)c1cc(C(C)C)n2nc(C(=O)N(C)C)c(-c3c(C)cccc3C)c2n1 [Compound 100, ethyl 2-(N,N-dimethylcarbamoyl)-3-(2,6-dimethylphenyl)-7-(methylethyl)-8-hydropyrazolo[1,5-a]pyrimidine-5-carboxylate]"
11,> 500 nM,"Cc1cccc(C)c1-c1c(C(=O)N(C)C)nn2c(C(C)C)cc(C(=O)O)nc12 [Compound 101, 2-(N,N-dimethylcarbamoyl)-3-(2,6-dimethylphenyl)-7-(methylethyl)-8-hydropyrazolo[1,5-a]pyrimidine-5-carboxylic acid]"
12,> 500 nM,"CNc1cc(C(=O)O)nc2c(-c3c(C)cccc3C)c(C)nn12 [Compound 102, 3-(2,6-dimethylphenyl)-2-methyl-7-(methylamino)-8-hydropyrazolo[1,5-a]pyrimidine-5-carboxylic acid]"
13,> 500 nM,"Cc1cccc(C)c1-c1c(C)nn2c(N(C)C)cc(C(=O)O)nc12 [Compound 103, 7-(dimethylamino)-3-(2,6-dimethylphenyl)-2-methyl-8-hydropyrazolo[1,5-a]pyrimidine-5-carboxylic acid]"
14,> 500 nM,"Cc1nn2c(C(C)C)cc(C(=O)O)nc2c1-c1c(F)cccc1F [Compound 104, 3-(2,6-difluorophenyl)-2-methyl-7-(methylethyl)-8-hydropyrazolo[1,5-a]pyrimidine-5-carboxylic acid]"
15,> 500 nM,"CCOC(=O)c1cc(C(C)C)n2nc(C)c(-c3c(F)cccc3F)c2n1 [Compound 105, ethyl 3-(2,6-difluorophenyl)-2-methyl-7-(methylethyl)-8-hydropyrazolo[1,5-a]pyrimidine-5-carboxylate]"
16,> 500 nM,"Cc1cccc(C)c1-c1c(C)nn2c(N3CCN(C)CC3)cc(C(=O)O)nc12 [Compound 106, 3-(2,6-dimethylphenyl)-2-methyl-7-(4-methylpiperazinyl)-8-hydropyrazolo[1,5-a]pyrimidine-5-carboxylic acid]"
17,> 500 nM,"Cc1cccc(C)c1-c1c(C)nn2c(Oc3ccccc3)cc(C(=O)O)nc12 [Compound 107, 3-(2,6-dimethylphenyl)-2-methyl-7-phenoxy-8-hydropyrazolo[1,5-a]pyrimidine-5-carboxylic acid]"
18,> 500 nM,"CCOC(=O)c1cc(N2CCN(C)CC2)n2nc(C)c(-c3c(C)cccc3C)c2n1 [Compound 108, ethyl 3-(2,6-dimethylphenyl)-2-methyl-7-(4-methylpiperazinyl)-8-hydropyrazolo[1,5-a]pyrimidine-5-carboxylate]"

row,EC50,SMILES
1,> 500 nM,"CCOC(=O)c1cc(Oc2ccccc2)n2nc(C)c(-c3c(C)cccc3C)c2n1 [Compound 109, ethyl 3-(2,6-dimethylphenyl)-2-methyl-7-phenoxy-8-hydropyrazolo[1,5-a]pyrimidine-5-carboxylate]"
2,> 500 nM,"Cc1cccc(C)c1-c1c(C)nn2c(C(C)C)cc(N)nc12 [Compound 110, 3-(2,6-dimethylphenyl)-2-methyl-7-(methylethyl)-8-hydropyrazolo[1,5-a]pyrimidine-5-ylamine]"
3,> 500 nM,"CC(=O)Nc1cc(C(C)C)n2nc(C)c(-c3c(C)cccc3C)c2n1 [Compound 111, N-[3-(2,6-dimethylphenyl)-2-methyl-7-(methylethyl)-8-hydropyrazolo[1,5-a]pyrimidin-5-yl]acetamide]"
4,> 500 nM,"CCOC(=O)c1cc(C(C)C)n2nc(C)c(-c3c(F)cccc3Cl)c2n1 [Compound 112, ethyl 3-(2-chloro-6-fluorophenyl)-2-methyl-7-(methylethyl)-8-hydropyrazolo[1,5-a]pyrimidine-5-carboxylate]"
5,> 500 nM,"Cc1nn2c(C(C)C)cc(C(=O)O)nc2c1-c1c(F)cccc1Cl [Compound 113, 3-(2-chloro-6-fluorophenyl)-2-methyl-7-(methylethyl)-8-hydropyrazolo[1,5-a]pyrimidine-5-carboxylic acid]"
6,> 500 nM,"CCOC(=O)c1cc(C(C)C)n2nc(C)c(-c3c(Cl)cccc3Cl)c2n1 [Compound 114, ethyl 3-(2,6-dichlorophenyl)-2-methyl-7-(methylethyl)-8-hydropyrazolo[1,5-a]pyrimidine-5-carboxylate]"
7,> 500 nM,"Cc1nn2c(C(C)C)cc(C(=O)O)nc2c1-c1c(Cl)cccc1Cl [Compound 115, 3-(2,6-dichlorophenyl)-2-methyl-7-(methylethyl)-8-hydropyrazolo[1,5-a]pyrimidine-5-carboxylic acid]"
8,200 to 500 nM,CCc1cccc(CC)c1-c1c(C)nn2c(C(C)C)cc(C(=O)O)nc12 [Compound 116]
9,> 500 nM,"CCOC(=O)c1cc(Nc2ccccc2)n2nc(C)c(-c3c(C)cccc3C)c2n1 [Compound 117, ethyl 3-(2,6-dimethylphenyl)-2-methyl-7-(phenylamino)-8-hydropyrazolo[1,5-a]pyrimidine-5-carboxylate]"
10,> 500 nM,"Cc1cccc(C)c1-c1c(C)nn2c(Nc3ccccc3)cc(C(=O)O)nc12 [Compound 118, 3-(2,6-dimethylphenyl)-2-methyl-7-(phenylamino)-8-hydropyrazolo[1,5-a]pyrimidine-5-carboxylic acid]"
11,> 500 nM,"COc1cccc(Cl)c1-c1c(C)nn2c(C(C)C)cc(C(=O)O)nc12 [Compound 119, 3-(6-chloro-2-methoxyphenyl)-2-methyl-7-(methylethyl)-8-hydropyrazolo[1,5-a]pyrimidine-5-carboxylic acid]"
12,> 500 nM,"Cc1nn2c(C(C)C)cc(C(=O)O)nc2c1-c1c(F)cccc1C#N [Compound 120, 3-(2-cyano-6-fluorophenyl)-2-methyl-7-(methylethyl)-8-hydropyrazolo[1,5-a]pyrimidine-5-carboxylic acid]"
13,> 500 nM,"CCc1cccc(C)c1-c1c(C)nn2c(C(C)C)cc(C(=O)O)nc12 [Compound 121, 3-(6-ethyl-2-methylphenyl)-2-methyl-7-(methylethyl)-8-hydropyrazolo[1,5-a]pyrimidine-5-carboxylic acid]"
14,> 500 nM,"COC(=O)c1cc(N2CCCC2)n2nc(C)c(-c3c(C)cccc3C)c2n1 [Compound 122, methyl 3-(2,6-dimethylphenyl)-2-methyl-7-pyrrolidinyl-8-hydropyrazolo[1,5-a]pyrimidine-5-carboxylate]"
15,> 500 nM,"Cc1cccc(C)c1-c1c(C)nn2c(N3CCCC3)cc(C(=O)O)nc12 [Compound 123, 3-(2,6-dimethylphenyl)-2-methyl-7-pyrrolidinyl-8-hydropyrazolo[1,5-a]pyrimidine-5-carboxylic acid]"
16,> 500 nM,"COC(=O)c1cc(N2CCCCC2)n2nc(C)c(-c3c(C)cccc3C)c2n1 [Compound 124, methyl 3-(2,6-dimethylphenyl)-2-methyl-7-piperidyl-8-hydropyrazolo[1,5-a]pyrimidine-5-carboxylate]"
17,> 500 nM,"Cc1cccc(C)c1-c1c(C)nn2c(N3CCCCC3)cc(C(=O)O)nc12 [Compound 125, 3-(2,6-dimethylphenyl)-2-methyl-7-piperidyl-8-hydropyrazolo[1,5-a]pyrimidine-5-carboxylic acid]"
